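1) Cells in 96-well plates. 2) Compound, 48 h, 5 concentrations. 3) Linear interpolation between surrounding doses. 4) Unreached endpoint = highest concentration. GI50 marks 50% less growth. Definition used: TGI = concentration required for complete inhibition of growth.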
Columns and labels:
Experiment in all cases: growth of human tumour cells (NCI), 48 h
[1] = tested on: 786-0 renal
[2] = tested on: HCT-15 colon
[3] = tested on: MALME-3M melanoma
[4] = tested on: NCI-H522 lung
[5] = tested on: OVCAR-3 ovarian
[6] = tested on: OVCAR-4 ovarian
[7] = tested on: OVCAR-5 ovarian
[8] = tested on: SF-295 CNS
[9] = tested on: SK-MEL-2 melanoma
[10] = tested on: U251 CNS

O=C1C(=O)c2cc([N+](=O)[O-])ccc2-c2ccccc21
GI50 [1]: 1970 nM
TGI [1]: 3390 nM
GI50 [2]: 1800 nM
TGI [2]: 3590 nM
GI50 [3]: 1770 nM
TGI [3]: 3400 nM
GI50 [4]: 1280 nM
TGI [4]: 2680 nM
GI50 [5]: 1420 nM
TGI [5]: 2760 nM
GI50 [6]: 1250 nM
TGI [6]: 2660 nM
GI50 [7]: 1820 nM
TGI [7]: 3360 nM
GI50 [8]: 1860 nM
TGI [8]: 3480 nM
GI50 [9]: 1550 nM
TGI [9]: 3050 nM
GI50 [10]: 1350 nM
TGI [10]: 2700 nM

C[C@H]1CCC/C=C/[C@@H]2C[C@H](O)C[C@H]2[C@H](O)[C@H](S(=O)c2ccc(O)cc2)CC(=O)O1 (some centres undefined)
GI50 [1]: 25.1 nM
TGI [1]: 79.3 nM
GI50 [2]: 44.3 nM
TGI [2]: 1690 nM
GI50 [3]: 20.2 nM
TGI [3]: 70.9 nM
GI50 [4]: 141 nM
TGI [4]: 3340 nM
GI50 [5]: 21 nM
TGI [5]: 1020 nM
GI50 [6]: 23.1 nM
TGI [6]: 978 nM
GI50 [7]: 61.3 nM
GI50 [8]: 69.8 nM
TGI [8]: > 100000 nM
GI50 [9]: 48.5 nM
TGI [9]: 504 nM
GI50 [10]: 40.3 nM
TGI [10]: > 77400 nM

COc1ccc(OC)c(/C=C/c2nnc(Nc3ccc(Cl)cc3)o2)c1
GI50 [1]: 2670 nM
TGI [1]: 7600 nM
GI50 [2]: 34100 nM
TGI [2]: > 100000 nM
GI50 [3]: 9870 nM
TGI [3]: 52400 nM
GI50 [4]: 7130 nM
TGI [4]: 83700 nM
GI50 [5]: 3550 nM
TGI [5]: 15900 nM
GI50 [6]: 2440 nM
TGI [6]: 6760 nM
GI50 [7]: 32500 nM
TGI [7]: > 100000 nM
GI50 [8]: 6150 nM
TGI [8]: 64500 nM
GI50 [9]: 9660 nM
TGI [9]: > 100000 nM
GI50 [10]: 3810 nM
TGI [10]: 14300 nM

O=C1C2CC3C(CC2C(=O)[N]1[Sn]([c]1ccccc1)([c]1ccccc1)[c]1ccccc1)C1(Cl)C(Cl)=C(Cl)C3(Cl)C1(Cl)Cl (centres undefined)
GI50 [1]: 157 nM
TGI [1]: 336 nM
GI50 [2]: 54 nM
TGI [2]: 209 nM
GI50 [3]: 195 nM
TGI [3]: 387 nM
GI50 [4]: 92.4 nM
TGI [4]: 226 nM
GI50 [5]: 96.4 nM
TGI [5]: 222 nM
GI50 [6]: 78.1 nM
TGI [6]: 289 nM
GI50 [7]: 151 nM
TGI [7]: 317 nM
GI50 [8]: 212 nM
TGI [8]: 455 nM
GI50 [9]: 167 nM
TGI [9]: 351 nM
GI50 [10]: 119 nM
TGI [10]: 252 nM

N=c1ccn2c(n1)OC1C(OP(=O)(O)O)C(CO)OC12 (centres undefined)
TGI [1]: > 100000 nM
TGI [2]: > 100000 nM
TGI [3]: > 100000 nM
TGI [4]: > 100000 nM
TGI [5]: > 100000 nM
TGI [6]: > 100000 nM
TGI [7]: > 100000 nM
TGI [8]: > 100000 nM
TGI [9]: > 100000 nM
TGI [10]: > 100000 nM

CCCCCCCCN(CCCCCCCC)C(=N)c1ccnc2ccccc12
GI50 [1]: 1020 nM
TGI [1]: 2370 nM
GI50 [2]: 348 nM
TGI [2]: 1330 nM
GI50 [3]: 1120 nM
TGI [3]: 2590 nM
GI50 [4]: 1480 nM
TGI [4]: 2920 nM
GI50 [5]: 1200 nM
TGI [5]: 2540 nM
GI50 [6]: 1200 nM
TGI [6]: 2600 nM
GI50 [7]: 1500 nM
TGI [7]: 3050 nM
GI50 [8]: 1520 nM
TGI [8]: 2920 nM
GI50 [9]: 1780 nM
TGI [9]: 3350 nM
GI50 [10]: 1230 nM
TGI [10]: 2580 nM

CCCCCCCCCCCCCCCCC1=CC(=O)C=C(OC)C1=O
TGI [1]: > 100000 nM
TGI [2]: > 100000 nM
TGI [3]: > 100000 nM
TGI [4]: > 100000 nM
TGI [5]: > 100000 nM
TGI [6]: > 100000 nM
TGI [7]: > 100000 nM
TGI [8]: > 100000 nM
TGI [9]: > 100000 nM
TGI [10]: 93800 nM

Source: PubChem BioAssay (NCI)
